Ends that are not written are not given here.
Key:
[1] = test system: MIOM1 (Muller-glial) non-neoplastic cells; test: Cytotoxicity (MTT) assay, MIOM1; type: cell-based, human; conditions: 24 and 48 h, 10-100 µM
Experimental: (§1) Y79 retinoblastoma and MIOM1 cells were seeded at 5 × 10^3 cells/well in 96-well plates and incubated at 37 °C overnight. The cells were then treated with varying concentrations (10, 30, 60, and 100 µM) of Pep-A and Pep-B in a fresh medium and incubated for specific time periods (24 and 48 h). At the end of the incubation, 10 µl of MTT [3-(4, 5-dimethylthiazol-2-yl)-2, 5-diphenyltetrazolium bromide; 5 mg/ml] was added to the cells with fresh medium (100 µl) and incubated at 37 °C until formazan crystals were formed. The formazan crystals were dissolved in 100 µl of DMSO, and the reading was taken at 570 nm (BioTek, ELISA, USA). Cell viability was calculated as Test OD/Control OD × 100.

Y79 cells [2] = test: Peptide uptake by flow cytometry (FACS); type: cell-based; conditions: 4 h; for FITC positive population in M2: Y79 RB cells, flow cytometry; for M1 population: Y79 cells, histogram statistic in text, in % (unit assumed)
Experimental: (§2) The Y79 cells were seeded on the lysine (0.01 mg/ml)-coated glass slide. The cells were cultured overnight and treated with different concentrations (50 or 100 µM) of FITC-tagged Pep-A for 4 h, for studying the localization and internalization of the peptide by fluorescence microscopy. The FITC-labeled peptide A molecules (molecular mass 771.2) were custom synthesized (CPS 1468-1, custom peptide synthesis, USV limited India) with ~95 % purity obtained by HPLC method. The GNPs and GNPs-Pep-A conjugates were doped with the R6G dye as described by Kalmodia et al., for the internalization study (Kalmodia et al. [2013]). The internalization of the peptide, R6G-doped GNPs and GNPs-Pep-A after 4 h was qualitatively detected by Zeiss LSM, 710 laser microscope supplied by Axio vision (Germany). […] Y79 cells were seeded at 2 × 10^5 cells/well in six-well plates and treated with 50 and 100 µM concentrations of Pep-A for 4 h. The cells were then spun at 1500 rpm for 5 min, washed with PBS buffer, and then resuspended in FACS buffer. The cells were then analyzed for uptake of the peptide using FACS Calibur (BD Biosciences, CA, USA) by means of CELL QUEST PRO software. The fluorescence of FITC-stained cells was excited with an argon laser at 488 nm, and the emissions were detected at 530 nm. The overlay graph and scattered plot were used to confirm the FITC positive cell population.

Y79 retinoblastoma cells = test: Cytotoxicity (MTT) assay, Y79; type: cell-based; conditions: 24 and 48 h, 10-100 µM
Experimental: as §1
Cytotoxic effects of GNPs and Pep-A were evaluated by MTT assay as per the protocol described in “Cytotoxicity assay” section. Antioxidant effects of GNPs-Pep-A, bioconjugate were evaluated by measuring the cellular ROS and SOD enzyme activity by similar methods as described in “Measurement of intracellular ROS levels on peptide treatment using 2′, 7′ dichlorodihydrofluorescein (DCF) assay” and “SOD activity measurement” sections, respectively. […] Total RNA was isolated using Trizol, and concentration of RNA was quantified using a Nanodrop (Biospec-Nano,Shimadzu, Biotech, Japan). […] Quantification of target gene expression was performed in triplicate in a 20-µl reaction mixture containing 0.1 µg of cDNA, specific primers (Table 1), and SYBR green reagent in 96-well plates on a real-time PCR system (Applied Biosystems, Singapore). GAPDH and β actin were used as internal controls, and the detection was carried out by measuring the binding of fluorescence dye SYBR green to double-stranded DNA. After cycling, relative quantitation of the tested gene cDNA against the internal control was performed using the ΔCT method. The relative amount of gene-specific mRNA to housekeeping gene was calculated using 2^−ΔΔCt, where Ct, the number of cycles at which amplification reaches a threshold, is determined using SDS software version 1.3.

Y79 cells [3] = test: Internalization by fluorescence microscopy; type: cell-based; conditions: Y79 RB cells; FITC-labeled Pep-A, R6G dye-doped GNPs and GNPs-Pep-A; 4 h (method), 3 h (Fig. 5 legend)
Experimental: as §2

PHCKRM [Pep-A, Pro-His-Cys-Lys-Arg-Met]
cytotoxicity to non-cancerous MIO-M1 cells (in words) [1]: no cytotoxicity
cytotoxicity to non-cancerous MIO-M1 cells (in words) ([1]; listed as pep-A): no toxicity
uptake into the Y79 cells (in words) (Y79 cells [2]; FACS, 50 and 100 µM): concentration-dependent uptake
FITC positive population in M2 (Y79 cells [2]; 50 µM FITC-tagged Pep-A, Fig. 4b): 99%
FITC positive population in M2 (Y79 cells [2]; 100 µM FITC-tagged Pep-A, Fig. 4c): 99%
M1 population (Y79 cells [2]; 50 µM of Pep-A, control 99.99): 99.97
M1 population (Y79 cells [2]; second mention printed as 50 µM of Pep-A): 99.95
cytotoxicity to Y79 cells (in words) (Y79 retinoblastoma cells): no cytotoxicity
cytotoxicity to Y79 cells (in words) (Y79 retinoblastoma cells; listed as pep-A): no toxicity
internalization by fluorescence microscopy (in words) (Y79 cells [3]): internalization

TRNYYVRAVL [Pep-B, Thr-Arg-Asn-Tyr-Tyr-Val-Arg-Ala-Val-Leu]
cytotoxicity to non-cancerous MIO-M1 cells (in words) [1]: no cytotoxicity
cytotoxicity to Y79 cells (in words) (Y79 retinoblastoma cells): no cytotoxicity

Reference: PMC4747989, “Bio-conjugation of antioxidant peptide on surface-modified gold nanoparticles: a novel approach to enhance the radical scavenging property in cancer cell” (Cancer Nanotechnology, 2016)
